{"source": "patent US10047086B2", "about": "“Imidazopyridines and imidazopyrazines as LSD1 inhibitors” (Incyte Corporation, priority 2014, dated 2018)", "note": "pIC50: −log10 of the molar value.", "data": [{"target": "LSD-1 enzyme (Homo sapiens (Human), UniProt O60341)", "test": "LANCE LSD1/KDM1A demethylase assay (LSD1 histone demethylase biochemical assay)", "conditions": "1 nM LSD-1 enzyme, 1 hour preincubation at 25° C., 0.4 μM Biotin-labeled Histone H3 peptide substrate", "protocol": "LSD1 Histone Demethylase Biochemical Assay\nLANCE LSD1/KDM1A demethylase assay-10 μL of 1 nM LSD-1 enzyme (ENZO BML-SE544-0050) in the assay buffer (50 mM Tris, pH 7.5, 0.01% Tween-20, 25 mM NaCl, 5 mM DTT) were preincubated for 1 hour at 25° C. with 0.8 μL compound/DMSO dotted in black 384 well polystyrene plates. […] Reactions were stopped by addition of 10 μL 1× LANCE Detection Buffer (PerkinElmer CR97-100) supplemented with 1.5 nM Eu-anti-unmodified H3K4 Antibody (PerkinElmer TRF0404), and 225 nM LANCE Ultra Streptavidin (PerkinElmer TRF102) along with 0.9 mM Tranylcypromine-HCl (Millipore 616431). After stopping the reactions plates were incubated for 30 minutes and read on a PHERAstar FS plate reader (BMG Labtech).", "values": [{"smiles": "CN1CCC[C@@H](COc2nc(-c3ccc(C#N)cc3)c(-c3ccc4scnc4c3)n3cncc23)C1", "note": "[Example 34, (R)-4-(5-(benzo[d]thiazol-5-yl)-8-((1-methylpiperidin-3-yl)methoxy)imidazo[1,5-a]pyrazin-6-yl)benzonitrile]", "pIC50": "≥ 7.30"}, {"smiles": "COc1ncc(-c2c(-c3ccc(C#N)cc3)nc(OC[C@@H]3CCCN(C)C3)c3cncn23)cc1F", "note": "[Example 43, 4-(5-(5-fluoro-6-methoxypyridin-3-yl)-8-{[(3R)-1-methylpiperidin-3-yl]methoxy}imidazo[1,5-a]pyrazin-6-yl)benzonitrile]", "pIC50": "≥ 7.30"}, {"smiles": "CN1CCC[C@@H](COc2cc(-c3ccc(C#N)cc3)c(-c3ccc(C(C)(C)O)cc3)n3cncc23)C1", "note": "[Example 77, 4-(5-[4-(1-hydroxy-1-methylethyl)phenyl]-8-{[(3R)-1-methylpiperidin-3-yl]methoxy}imidazo[1,5-a]pyridin-6-yl)benzonitrile]", "pIC50": "≥ 7.30"}, {"smiles": "CN1CCC[C@@H](COc2nc(-c3ccc(C#N)c(F)c3)c(-c3ccc4c(c3)CCC(=O)N4C)n3cncc23)C1", "note": "[Example 102, 2-fluoro-4-(5-(1-methyl-2-oxo-1,2,3,4-tetrahydroquinolin-6-yl)-8-{[(3R)-1-methylpiperidin-3-yl]methoxy}imidazo[1,5-a]pyrazin-6-yl)benzonitrile]", "pIC50": "≥ 7.30"}, {"smiles": "CC(O)c1ccc(-c2c(-c3ccc(C#N)cc3)cc(OC[C@@H]3CCCN(C)C3)c3cncn23)cc1", "note": "(stereo partly drawn) [Example 123, 4-(5-[4-(1-hydroxyethyl)phenyl]-8-{[(3R)-1-methylpiperidin-3-yl]methoxy}imidazo[1,5-a]pyridin-6-yl)benzonitrile]", "pIC50": "≥ 7.30"}, {"smiles": "CCN1CCC[C@@H](COc2cc(-c3ccc(C#N)cc3)c(-c3cnc4c(c3)OCCO4)n3cncc23)C1", "note": "[Example 67, (R)-4-(5-(2,3-dihydro-[1,4]dioxino[2,3-b]pyridin-7-yl)-8-((1-ethylpiperidin-3-yl)methoxy)imidazo[1,5-a]pyridin-6-yl)benzonitrile]", "pIC50": "≥ 7.30"}, {"smiles": "CN1CCC[C@@H](COc2cc(-c3ccc(C#N)cc3)c(-c3ccc(N(C)C)nc3)n3cncc23)C1", "note": "[Example 80, 4-(5-[6-(dimethylamino)pyridin-3-yl]-8-{[(3R)-1-methylpiperidin-3-yl]methoxy}imidazo[1,5-a]pyridin-6-yl)benzonitrile]", "pIC50": "≥ 7.30"}, {"smiles": "Cc1cc(-c2c(-c3ccc(C#N)cc3)cc(OC[C@@H]3CCCN(C)C3)c3cncn23)ccc1CO", "note": "[Example 79, 4-(5-[4-(hydroxymethyl)-3-methylphenyl]-8-{[(3R)-1-methylpiperidin-3-yl]methoxy}imidazo[1,5-a]pyridin-6-yl)benzonitrile]", "pIC50": "≥ 7.30"}, {"smiles": "CCN1CCC[C@@H](COc2nc(-c3ccc(C#N)cc3)c(-c3cc4oc(=O)n(C)c4cc3F)n3cncc23)C1", "note": "[Example 111, 4-[8-{[(3R)-1-ethylpiperidin-3-yl]methoxy}-5-(5-fluoro-3-methyl-2-oxo-2,3-dihydro-1,3-benzoxazol-6-yl)imidazo[1,5-a]pyrazin-6-yl]benzonitrile]", "pIC50": "≥ 7.30"}, {"smiles": "Cc1ccc(-c2c(-c3ccc(C#N)cc3)cc(OC[C@@H]3CCN(C)C3)c3cncn23)cc1", "note": "[Example 20, 4-(5-(4-methylphenyl)-8-{[(3R)-1-methylpyrrolidin-3-yl]methoxy}imidazo[1,5-a]pyridin-6-yl)benzonitrile]", "pIC50": "≥ 7.30"}, {"smiles": "Cc1cc(-c2c(-c3ccc(C#N)cc3)nc(OC[C@@H]3CCCN(C)C3)c3cncn23)cc(F)c1CO", "note": "[Example 44, 4-(5-[3-fluoro-4-(hydroxymethyl)-5-methylphenyl]-8-{[(3R)-1-methylpiperidin-3-yl]methoxy}imidazo[1,5-a]pyrazin-6-yl)benzonitrile]", "pIC50": "≥ 7.30"}, {"smiles": "COCCN1CCC[C@@H](COc2nc(-c3ccc(C#N)cc3)c(-c3cnc4c(cnn4C)c3)n3cncc23)C1", "note": "[Example 40, 4-[8-{[(3R)-1-(2-methoxyethyl)piperidin-3-yl]methoxy}-5-(1-methyl-1H-pyrazolo[3,4-b]pyridin-5-yl)imidazo[1,5-a]pyrazin-6-yl]benzonitrile]", "pIC50": "≥ 7.30"}, {"smiles": "Cc1ccc(-c2c(-c3ccc(C#N)cc3)cc(OC[C@@H]3CCCN(C)C3)c3cncn23)cn1", "note": "[Example 125, 4-[8-{[(3R)-1-methylpiperidin-3-yl]methoxy}-5-(6-methylpyridin-3-yl)imidazo[1,5-a]pyridin-6-yl]benzonitrile]", "pIC50": "≥ 7.30"}, {"smiles": "Cc1cc(-c2c(-c3ccc(C#N)cc3)cc(OC[C@@H]3CCCN(C)C3)c3cncn23)cc(F)c1C(C)O", "note": "(stereo partly drawn) [Example 126, 4-(5-[3-fluoro-4-(1-hydroxyethyl)-5-methylphenyl]-8-{[(3R)-1-methylpiperidin-3-yl]methoxy}imidazo[1,5-a]pyridin-6-yl)benzonitrile]", "pIC50": "≥ 7.30"}, {"smiles": "Cn1ncc2cc(-c3c(-c4ccc(C#N)cc4)nc(OC[C@@H]4CCCN(CCC#N)C4)c4cncn34)cnc21", "note": "[Example 38, 4-[8-{[(3R)-1-(2-cyanoethyl)piperidin-3-yl]methoxy}-5-(1-methyl-1H-1-pyrazolo[3,4-b]pyridin-5-yl)imidazo[1,5-a]pyrazin-6-yl]benzonitrile]", "pIC50": "≥ 7.30"}, {"smiles": "CCN1CCC[C@@H](COc2cc(-c3ccc(C#N)cc3)c(-c3ccc4c(c3)CC(=O)N4C)n3cncc23)C1", "note": "[Example 114, (R)-4-(8-((1-ethylpiperidin-3-yl)methoxy)-5-(1-methyl-2-oxoindolin-5-yl)imidazo[1,5-a]pyridin-6-yl)benzonitrile]", "pIC50": "≥ 7.30"}, {"smiles": "CN1CCN(Cc2ccc(-c3c(-c4ccc(C#N)cc4)cc(OC[C@@H]4CCNC4)c4cncn34)cc2)CC1", "note": "[Example 19, 4-{5-{4-[(4-methylpiperazin-1-yl)methyl]phenyl}-8-[(3R)-pyrrolidin-3-ylmethoxy]imidazo-[1,5-a]pyridin-6-yl}benzonitrile]", "pIC50": "≥ 7.30"}, {"smiles": "Cc1ccc(-c2c(-c3ccc(C#N)c(F)c3)cc(OC[C@@H]3CCNC3)c3cncn23)cc1", "note": "[Example 4, 2-fluoro-4-{5-(4-methylphenyl)-8-[(3R)-pyrrolidin-3-ylmethoxy]imidazo[1,5-a]pyridin-6-yl}benzonitrile]", "pIC50": "≥ 7.30"}, {"smiles": "CN1CCC[C@@H](COc2nc(-c3ccc(C#N)cc3)c(-c3cnc4c(c3)OCCN4C)n3cncc23)C1", "note": "[Example 29, 4-(5-(4-methyl-3,4-dihydro-2H-pyrido[3,2-b][1,4]oxazin-7-yl)-8-{[(3R)-1-methylpiperidin-3-yl]methoxy}imidazo[1,5-a]pyrazin-6-yl)benzonitrile]", "pIC50": "≥ 7.30"}, {"smiles": "COCCN1CCC[C@@H](COc2cc(-c3ccc(C#N)cc3)c(-c3cnc4ccoc4c3)n3cncc23)C1", "note": "[Example 121, 4-(5-furo[3,2-b]pyridin-6-yl-8-{[(3R)-1-(2-methoxyethyl)piperidin-3-yl]methoxy}imidazo[1,5-a]pyridin-6-yl)benzonitrile]", "pIC50": "≥ 7.30"}, {"smiles": "COc1ncc(-c2c(-c3ccc(C#N)cc3)nc(N3CCC(N(C)C)CC3)c3cncn23)cc1C", "note": "[Example 93, 4-[8-[4-(dimethylamino)piperidin-1-yl]-5-(6-methoxy-5-methylpyridin-3-yl)imidazo[1,5-a]pyrazin-6-yl]benzonitrile]", "pIC50": "≥ 7.30"}, {"smiles": "CCn1c(=O)oc2cc(-c3c(-c4ccc(C#N)cc4)nc(N4CCC(N(C)C)CC4)c4cncn34)ccc21", "note": "[Example 108, 4-[8-[4-(dimethylamino)piperidin-1-yl]-5-(3-ethyl-2-oxo-2,3-dihydro-1,3-benzoxazol-6-yl)imidazo[1,5-a]pyrazin-6-yl]benzonitrile]", "pIC50": "≥ 7.30"}, {"smiles": "CN(C)C1CCN(c2nc(-c3ccc(C#N)cc3)c(-c3ccc4c(c3)nc(C(F)F)n4C)n3cncc23)CC1", "note": "[Example 143, 4-{5-[2-(difluoromethyl)-1-methyl-1H-benzimidazol-5-yl]-8-[4-(dimethylamino)piperidin-1-yl]imidazo[1,5-a]pyrazin-6-yl}benzonitrile]", "pIC50": "≥ 7.30"}, {"smiles": "CN(C)[C@H]1CCN(c2nc(-c3ccc(C#N)cc3)c(-c3cc4oc(=O)n(C)c4cc3F)n3cncc23)C1", "note": "[Example 113, 4-[8-[(3S)-3-(dimethylamino)pyrrolidin-1-yl]-5-(5-fluoro-3-methyl-2-oxo-2,3-dihydro-1,3-benzoxazol-6-yl)imidazo[1,5-a]pyrazin-6-yl]benzonitrile]", "pIC50": "≥ 7.30"}, {"smiles": "CN1CCOc2cc(-c3c(-c4ccc(C#N)cc4)cc(OC[C@@H]4CCNC4)c4cncn34)ccc21", "note": "[Example 14, 4-{5-(4-methyl-3,4-dihydro-2H-1,4-benzoxazin-7-yl)-8-[(3R)-pyrrolidin-3-ylmethoxy]imidazo[1,5-a]pyridin-6-yl}benzonitrile]", "pIC50": "≥ 7.30"}, {"smiles": "Cc1ncc(-c2c(-c3ccc(C#N)cc3)nc(N3CCC(N(C)C)CC3)c3cncn23)cc1F", "note": "[Example 97, 4-[8-[4-(dimethylamino)piperidin-1-yl]-5-(5-fluoro-6-methylpyridin-3-yl)imidazo[1,5-a]pyrazin-6-yl]benzonitrile]", "pIC50": "≥ 7.30"}, {"smiles": "CN(C)C1CCN(c2nc(-c3ccc(C#N)cc3)c(-c3ccc(N4CCCC4=O)nc3)n3cncc23)CC1", "note": "[Example 54, 4-{8-[4-(dimethylamino)piperidin-1-yl]-5-[6-(2-oxopyrrolidin-1-yl)pyridin-3-yl]imidazo[1,5-a]pyrazin-6-yl}benzonitrile]", "pIC50": "≥ 7.30"}, {"smiles": "Cc1ccc(-c2c(-c3ccc(C#N)cc3)nc(N3CCC(N(C)C)CC3)c3cncn23)c(CO)c1", "note": "[Example 92, 4-{8-[4-(dimethylamino)piperidin-1-yl]-5-[2-(hydroxymethyl)-4-methylphenyl]imidazo[1,5-a]pyrazin-6-yl}benzonitrile]", "pIC50": "≥ 7.30"}, {"smiles": "Cc1ccc(-c2c(-c3ccc(C#N)cc3)nc(OC[C@@H]3CCCN(C)C3)c3cncn23)cc1CO", "note": "[Example 42, 4-(5-[3-(hydroxymethyl)-4-methylphenyl]-8-{[(3R)-1-methylpiperidin-3-yl]methoxy}imidazo[1,5-a]pyrazin-6-yl)benzonitrile]", "pIC50": "≥ 7.30"}]}]}
